Data reported in patent US4508625A, “Magnetic separation using chelated magnetic ions” (priority 1983, dated 1985).

Tests used:
[1] = test system: human blood cells (whole blood); test: High-gradient magnetic separation (HGMS) filtration of cells from diluted whole blood; format: cell-based; settings: for Magnetic efficiency, E / Magnetic filtration, M / Mechanical Filtration, F / Total Filtration, T: 0.75 ml/min, 316L matrix
Excerpt: The samples were verified for normalcy (COULTER COUNTER Model S-Plus; Coulter Electronics, Inc.) before use on the day of drawing.
Separability of cells from carrier fluids was examined using a High-Gradient Magnetic Separation (HGMS) system. The filter was a D-shaped plastic chamber 13 mm long and 118 mm^2 in cross-section, filled with stainless steel wire as noted. Packing was random, but with the major component parallel to flow. […] Suspension flows upward through the filter were controlled by a variable-speed syringe pump, fitted with a 3 ml syringe to contain the cell suspension.
Unless otherwise noted, to clean the matrix and to clear the circuit of air, the filter was flushed manually with 15 ml of the experimental carrier solution before each separation determination. With the electromagnet still de-energized, the circuit was then overfilled rapidly with the corresponding cell suspension, and the syringe pump was activated. After 1.2 ml of cell suspension had been delivered at the chosen flow rate, a one-milliliter aliquot (Al) of filter effluent was collected for use in calculating mechanical filtration levels. With filter backflow prevented, the pump syringe was refilled, the magnet energized at the preselected field intensity, and the delivery and collection (aliquot A2) steps repeated. This sequence was repeated for each selected combination of flow rate and field intensity. A 2 ml control aliquot (A3) was taken for each suspension from the reservoir used to fill the filter and the syringe pump. The aliquots were analyzed for cell count and volume, count data (A1, A2, A3) being used to calculate filter characteristics as follows (for percentages, multiply by 100:)
Mechanical Filtration, F=(A3-A1)/A3
Magnetic filtration, M=(A1-A2)/A3
Magnetic efficiency, E=(A1-A2)/A1=M/(1-F)
Total Filtration, T=(A3-A2)/A3=M+F
The solution osmolarity was adjusted to that of 40 mM erbium chloride by addition of sodium chloride. In a second experiment, 10 mM sodium dithionite in isotonic saline buffered with phosphate was employed.
Erbium chloride was dissolved in water via chelation with EDTA. Carrier solutions of 100 cc each, containing erbium chloride in the concentration of 2 mM, 5 mM, 10 mM, 20 mM, 40 mM and 50 mM respectively and EDTA in a molar ratio of 1.1:1 with the erbium chloride were prepared in the following manner for use in obtaining the data reported in Table I.
The volume was then brought to 75 ml with deionized water, and the materials were mixed in a plastic container. The solution pH was adjusted to 7.0 to 7.1 by adding sodium hydroxide solution. The osmolarity was then adjusted to physiological levels of about 300±10 mOs/L, the 100 ml volume being completed with deionized water. Carrier solutions were prepared within two hours of each experiment from stock solutions no more than one week old.
The above procedures were followed substituting the equivalent amount of dysprosium chloride for the erbium chloride in order to obtain the values reported in FIG. 1.

blood cells = test: Cell integrity during separation (lysis, morphology, clumping, hemoglobin state); format: cell-based, human; settings: 10 mM sodium dithionite
Protocol: In Table I, the filtration data at 0.75 ml/min is reported for whole blood diluted 1:101 with the working solution including erbium chelate at the indicated concentration. The matrix material was unannealed, 316L austenitic stainless wire, 35 micrometers in diameter, randomly packed to 11.4% of the filter volume. Table I summarizes experimental filtration data according to the concentration of Er(EDTA)^- in the carrier solution, and includes for comparative purposes, sodium dithionite at 10 mM final concentration as a substitute for the chelated lanthanide. The solution osmolarity was adjusted to that of 40 mM erbium chloride by addition of sodium chloride. In a second experiment, 10 mM sodium dithionite in isotonic saline buffered with phosphate was employed. […] Data for various field intensities are given for the higher chelate concentrations, all at constant flows of 0.75 ml/min. Carrier solutions used in each of the stated concentrations of the lanthanide chelate were prepared as described in Example 1.
Cellular hemoglobin remains in the oxygenated (and therefore the antagonistically diamagnetic) state throughout the separation process. Cell lysis was not detected. […] The cells were readily removed from the matrix by flushing with isotonic saline (0.9% NaCl by weight containing no metal chelate). […]

red blood cells = settings: 10 mM dithionite or 20 mM nitrite, cited from earlier work; for cell separation: 1.0 Tesla, 1.0 ml/minute, filtration times of more than one minute; for separation efficiency: 2.0 Tesla, unacceptably variable from sample to sample

Compound: O=S([O-])S(=O)[O-].[Na+].[Na+] [Sodium dithionite, sodium dithionite]
- Magnetic efficiency, E ([1]; 10 mM, 0.30 T): 13.0%
- Magnetic filtration, M ([1]; 10 mM, 0.30 T): 11.6%
- Mechanical Filtration, F ([1]; 10 mM, 0.30 T): 11.0%
- Total Filtration, T ([1]; 10 mM, 0.30 T): 22.6%
- Magnetic efficiency, E ([1]; 10 mM, 1.00 T): 76.9%
- Magnetic filtration, M ([1]; 10 mM, 1.00 T): 68.4%
- Mechanical Filtration, F ([1]; 10 mM, 1.00 T): 11.0%
- Total Filtration, T ([1]; 10 mM, 1.00 T): 79.4%
- Magnetic efficiency, E ([1]; 50 mM, 0.48 T): 92.2%
- Magnetic filtration, M ([1]; 50 mM, 0.48 T): 88.2%
- Mechanical Filtration, F ([1]; 50 mM, 0.48 T): 4.3%
- Total Filtration, T ([1]; 50 mM, 0.48 T): 92.5%
- Magnetic efficiency, E ([1]; 50 mM, 1.00 T): 98.4%
- Magnetic filtration, M ([1]; 50 mM, 1.00 T): 94.1%
- Mechanical Filtration, F ([1]; 50 mM, 1.00 T): 4.3%
- Total Filtration, T ([1]; 50 mM, 1.00 T): 98.4%
- separation efficiency ([1]; 0.3 Tesla, 430 ferritic matrix, 40 mM chelate or 10 mM sodium dithionite, 0.75 ml/min (FIG. 1)): 37%
- separation efficiency ([1]; 0.7 Tesla, 430 ferritic matrix, 10 mM sodium dithionite, identical flows): 90%
- repeatable separations at efficiencies greater than 99% ([1]; 430 ferritic matrix): not practical
- deoxygenation of hemoglobin (blood cells): deoxygenation was confirmed spectrophotometrically
- cell separation (red blood cells): approximately 70%
- separation efficiency (red blood cells): exceeding 85%

Compound: O=N[O-].[Na+] [nitrite, sodium nitrite]
- cell separation (red blood cells): approximately 70%
- separation efficiency (red blood cells): exceeding 85%
